One test concerns the target T1, EML4-ALK (Homo sapiens, UniProt Q9UM73).
T1 construct: endogenous in cells; host or cells: H3122 (NSCLC), single-cell clone after CRISPR knock-in of HiBit; the other entry of the earlier key: EML4 (Q9HC35, Echinoderm microtubule-associated protein-like 4)
The test is described as follows: EML4-ALK HiBit degradation assay in CRISPR-tagged H3122 cells (Nano-Glo HiBit Lytic Detection). The test is classed as cell-based. On the procedure: NSCLC cell line H3122 was subjected to CRISPR to express EML4-ALK with HiBit-tag on its c-terminal. Single-cell clone was selected and expanded for the following assays that monitor endogenous EML4-ALK level in high throughput manner. Cells were seeded in 384-well white Tissue-culture plates at 3000 cells/well for 8 hours. […] HiBit signal was assessed using Nano-Glo® HiBit Lytic Detection System (Promega™). Degrader-treated was normalized by DMSO-treated controls and DC50 and Dmax were generated by GraphPad Prism® 8.0.
NSCLC cell line H3122 was subjected to CRISPR to express EML4-ALK with HiBit-tag on its c-terminus. A single-cell clone was selected and expanded for the following assays that monitor endogenous EML4-ALK level in high throughput manner. Cells were seeded in 384-well white Tissue-culture plates at 3000 cells/well for 8 hours. […] HiBit signal was assessed using Nano-Glo® HiBit Lytic Detection System (Promega™). Degrader-treated cells were normalized by DMSO-treated controls and DC50 and Dmax were generated by GraphPad Prism® 8.0.
NSCLC cell line H3122 was subjected to CRISPR to express EML4-ALK with HiBit-tag on its C-terminus. A single-cell clone was selected and expanded for the following assays that monitor endogenous EML4-ALK level in high throughput manner. Cells were seeded in 384-well white Tissue-culture plates at 3000 cells/well for 8 hours. […] HiBit signal was assessed using Nano-Glo® HiBit Lytic Detection System (Promega™). Degrader-treated cells were normalized by DMSO-treated controls and DC50 and Dmax were generated by GraphPad Prism® 8.0.
Background: HiBiT is a short tag that completes a luciferase, so light tracks the accessible tagged protein.

The subject of a further test is H3122 cells. Put plainly: CTG. It is filed as cell-based. To be noted: Homo sapiens, NCI-H3122; Table 1; read-out: CTG IC50.
Setting [1] is: NCI-H3122, Table 1, first Dmax column, H3122 EML4-ALK-HiBit, 16 hours, read-out: Degradation Dmax.
Where [2] appears, read: NCI-H3122, Table 1, second Dmax column, H3122 EML4-ALK-HiBit, 16 hours, read-out: Degradation Dmax.
The mark [3] stands for this setting: NCI-H3122, Table 1, average Dmax, read-out: Degradation Avg. Dmax.
[4] abbreviates: Table 1, first DC50 column, H3122 EML4-ALK-HiBit, 16 hours, read-out: Degradation DC50.
The mark [5] stands for this setting: Table 1, second DC50 column, H3122 EML4-ALK-HiBit, 16 hours, read-out: Degradation DC50.
Setting [6] is: Table 1, average DC50, read-out: Degradation Avg. DC50.

Structures are written as SMILES. Where two headings read alike, the source gives them in different places.

T1 sequence (Q9UM73 with tags, fused parts or gaps): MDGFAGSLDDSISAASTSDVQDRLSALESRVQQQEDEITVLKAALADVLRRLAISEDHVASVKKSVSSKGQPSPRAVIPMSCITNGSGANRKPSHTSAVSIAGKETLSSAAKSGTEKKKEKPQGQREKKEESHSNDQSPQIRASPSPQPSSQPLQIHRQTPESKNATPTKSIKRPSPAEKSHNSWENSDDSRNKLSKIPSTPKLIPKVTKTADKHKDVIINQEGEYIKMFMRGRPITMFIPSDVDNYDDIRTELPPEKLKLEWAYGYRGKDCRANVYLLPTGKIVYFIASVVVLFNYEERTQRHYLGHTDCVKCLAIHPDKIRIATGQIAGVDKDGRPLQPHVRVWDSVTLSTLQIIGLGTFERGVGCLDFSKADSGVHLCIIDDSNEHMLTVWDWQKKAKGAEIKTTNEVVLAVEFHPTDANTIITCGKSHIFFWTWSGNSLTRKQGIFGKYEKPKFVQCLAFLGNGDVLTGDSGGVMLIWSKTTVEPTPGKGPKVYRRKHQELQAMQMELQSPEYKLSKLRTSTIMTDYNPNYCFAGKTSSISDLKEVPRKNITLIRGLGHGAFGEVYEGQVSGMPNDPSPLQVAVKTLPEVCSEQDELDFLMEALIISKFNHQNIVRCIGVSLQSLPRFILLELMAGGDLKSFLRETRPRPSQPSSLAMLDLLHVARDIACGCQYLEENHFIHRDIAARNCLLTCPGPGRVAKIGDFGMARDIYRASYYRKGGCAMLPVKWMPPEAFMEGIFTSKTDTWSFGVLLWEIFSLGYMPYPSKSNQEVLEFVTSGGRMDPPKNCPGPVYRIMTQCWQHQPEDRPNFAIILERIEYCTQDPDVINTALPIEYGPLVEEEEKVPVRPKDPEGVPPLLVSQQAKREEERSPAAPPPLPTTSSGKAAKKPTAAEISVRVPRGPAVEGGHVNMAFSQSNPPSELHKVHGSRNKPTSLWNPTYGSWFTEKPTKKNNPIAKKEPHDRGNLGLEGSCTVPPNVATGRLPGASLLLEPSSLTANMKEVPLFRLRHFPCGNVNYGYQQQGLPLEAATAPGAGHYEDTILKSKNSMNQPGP

For `COc1cc(CCN(C)C(=O)CCOCCOCCNc2cccc3c2C(=O)N(C2CCC(=O)NC2=O)C3=O)c(C)cc1Nc1ncc(Cl)c(Nc2ccccc2S(=O)(=O)C(C)C)n1` (centres unmarked) [compound 4, N-(4-((5-chloro-4-((2-(isopropylsulfonyl)phenyl)amino)pyrimidin-2-yl)amino)-5-methoxy-2-methylphenethyl)-3-(2-(2-((2-(2,6-dioxopiperidin-3-yl)-1,3-dioxoisoindolin-4-yl)amino)ethoxy)ethoxy)-N-methylpropanamide], the Dmax at EML4-ALK (setting [1]) stood at 44.8%; on EML4-ALK (setting [2]), 33%; at EML4-ALK (setting [3]) it was 38.9%. The DC50 was 0.1 µM on EML4-ALK (setting [4]), 0.034 µM on EML4-ALK (setting [5]) and 0.067 µM on EML4-ALK (setting [6]). Besides, the IC50 with H3122 cells was 0.0251 µM.

In the case of `COc1cc(CCN(C)C(=O)CCCNC(=O)COc2cccc3c2C(=O)N(C2CCC(=O)NC2=O)C3=O)c(C)cc1Nc1ncc(Cl)c(Nc2ccccc2S(=O)(=O)C(C)C)n1` (centres unmarked) [compound 5, N-(4-((5-chloro-4-((2-(isopropylsulfonyl)phenyl)amino)pyrimidin-2-yl)amino)-5-methoxy-2-methylphenethyl)-4-(2-((2-(2,6-dioxopiperidin-3-yl)-1,3-dioxoisoindolin-4-yl)oxy)acetamido)-N-methylbutanamide], the maximal degradation (Dmax) at EML4-ALK (setting [1]) and at EML4-ALK (setting [3]) was 44.5% in each case. The DC50 at EML4-ALK (setting [4]) was determined as 0.239 µM. In addition, the concentration for half-maximal inhibition (IC50) with H3122 cells came to 0.149 µM.

With `COc1cc(CCN(C)C(=O)CCCCCNC(=O)COc2cccc3c2C(=O)N(C2CCC(=O)NC2=O)C3=O)c(C)cc1Nc1ncc(Cl)c(Nc2ccccc2S(=O)(=O)C(C)C)n1` (centres unmarked) [compound 6, N-(4-((5-chloro-4-((2-(isopropylsulfonyl)phenyl)amino)pyrimidin-2-yl)amino)-5-methoxy-2-methylphenethyl)-6-(2-((2-(2,6-dioxopiperidin-3-yl)-1,3-dioxoisoindolin-4-yl)oxy)acetamido)-N-methylhexanamide], the Dmax at EML4-ALK (setting [1]) is 34%; on EML4-ALK (setting [2]) it was 30.4%; on EML4-ALK (setting [3]), 32.2%. Moreover, the results for the DC50 on EML4-ALK (setting [4]), on EML4-ALK (setting [5]) and on EML4-ALK (setting [6]) were 0.124 µM, 0.266 µM and 0.195 µM, respectively. For the same molecule, the IC50 with H3122 cells was found to be 0.0116 µM.

`COc1cc(CCN(C)C(=O)CCCCCCCCNC(=O)COc2cccc3c2C(=O)N(C2CCC(=O)NC2=O)C3=O)c(C)cc1Nc1ncc(Cl)c(Nc2ccccc2S(=O)(=O)C(C)C)n1` (centres unmarked) [compound 7, N-(4-((5-chloro-4-((2-(isopropylsulfonyl)phenyl)amino)pyrimidin-2-yl)amino)-5-methoxy-2-methylphenethyl)-9-(2-((2-(2,6-dioxopiperidin-3-yl)-1,3-dioxoisoindolin-4-yl)oxy)acetamido)-N-methylnonanamide]: the Dmax at EML4-ALK (setting [1]) turned out to be 50.8%; at EML4-ALK (setting [2]), 44.8%; on EML4-ALK (setting [3]), 47.8%. The 50% degradation concentration (DC50) at EML4-ALK (setting [4]) amounted to 0.091 µM; at EML4-ALK (setting [5]) it was 0.036 µM; on EML4-ALK (setting [6]), 0.063 µM. Further, the IC50 in the test with H3122 cells came out at 0.0157 µM.

On to `COc1cc(CCN(C)C(=O)CCOCCOCCNC(=O)COc2cccc3c2C(=O)N(C2CCC(=O)NC2=O)C3=O)c(C)cc1Nc1ncc(Cl)c(Nc2ccccc2S(=O)(=O)C(C)C)n1` (centres unmarked) [compound 8, N-(4-((5-chloro-4-((2-(isopropylsulfonyl)phenyl)amino)pyrimidin-2-yl)amino)-5-methoxy-2-methylphenethyl)-3-(2-(2-(2-((2-(2,6-dioxopiperidin-3-yl)-1,3-dioxoisoindolin-4-yl)oxy)acetamido)ethoxy)ethoxy)-N-methylpropanamide], for which the Dmax at EML4-ALK (setting [1]) is 44.3%; on EML4-ALK (setting [3]), 44.8%. Moreover, the DC50 at EML4-ALK (setting [4]) and on EML4-ALK (setting [6]) was 0.171 µM each time. The IC50 in the test with H3122 cells worked out at 0.075 µM.

With `COc1cc(CCN(C)C(=O)CCCC#Cc2cccc3c2C(=O)N(C2CCC(=O)NC2=O)C3=O)c(C)cc1Nc1ncc(Cl)c(Nc2ccccc2S(=O)(=O)C(C)C)n1` (centres unmarked) [compound 9, N-(4-((5-chloro-4-((2-(isopropylsulfonyl)phenyl)amino)pyrimidin-2-yl)amino)-5-methoxy-2-methylphenethyl)-6-(2-(2,6-dioxopiperidin-3-yl)-1,3-dioxoisoindolin-4-yl)-N-methylhex-5-ynamide], the Dmax on EML4-ALK (setting [1]) and on EML4-ALK (setting [3]) was 54.1% throughout. The DC50 at EML4-ALK (setting [4]) and at EML4-ALK (setting [6]) was 0.265 µM throughout. Besides, the 50% inhibitory concentration (IC50) in the test on H3122 cells was 0.122 µM.

Take `COc1cc(CCN(C)C(=O)CCCCCC#Cc2cccc3c2C(=O)N(C2CCC(=O)NC2=O)C3=O)c(C)cc1Nc1ncc(Cl)c(Nc2ccccc2S(=O)(=O)C(C)C)n1` (centres unmarked) [compound 10, N-(4-((5-chloro-4-((2-(isopropylsulfonyl)phenyl)amino)pyrimidin-2-yl)amino)-5-methoxy-2-methylphenethyl)-8-(2-(2,6-dioxopiperidin-3-yl)-1,3-dioxoisoindolin-4-yl)-N-methyloct-7-ynamide]: the Dmax on EML4-ALK (setting [1]) and at EML4-ALK (setting [3]) was 43.4% throughout. For the same molecule, the DC50 at EML4-ALK (setting [4]) and at EML4-ALK (setting [6]) was 0.203 µM throughout. The IC50 in the test on H3122 cells was 0.125 µM.

Take `COc1cc(CCN(C)C(=O)CCOCCOCCOCC#Cc2cccc3c2C(=O)N(C2CCC(=O)NC2=O)C3=O)c(C)cc1Nc1ncc(Cl)c(Nc2ccccc2S(=O)(=O)C(C)C)n1` (centres unmarked) [compound 11, N-(4-((5-chloro-4-((2-(isopropylsulfonyl)phenyl)amino)pyrimidin-2-yl)amino)-5-methoxy-2-methylphenethyl)-3-(2-(2-((3-(2-(2,6-dioxopiperidin-3-yl)-1,3-dioxoisoindolin-4-yl)prop-2-yn-1-yl)oxy)ethoxy)ethoxy)-N-methylpropanamide]: the Dmax on EML4-ALK (setting [1]) and at EML4-ALK (setting [3]) was 53.3% in each case. Also, the DC50 at EML4-ALK (setting [4]) stood at 0.502 µM; at EML4-ALK (setting [6]) it was 0.302 µM. Moreover, in the test on H3122 cells, the IC50 came to 0.219 µM.

Turning to `COc1cc(CCN(C)C(=O)CCCCCCC(=O)N[C@H](C(=O)N2C[C@H](O)C[C@H]2C(=O)N[C@@H](C)c2ccc(-c3scnc3C)cc2)C(C)(C)C)c(C)cc1Nc1ncc(Cl)c(Nc2ccccc2S(=O)(=O)C(C)C)n1` [compound 40, N^1-(4-((5-chloro-4-((2-(isopropylsulfonyl)phenyl)amino)pyrimidin-2-yl)amino)-5-methoxy-2-methylphenethyl)-N^8-((S)-1-((2S,4R)-4-hydroxy-2-(((S)-1-(4-(4-methylthiazol-5-yl)phenyl)ethyl)carbamoyl)pyrrolidin-1-yl)-3,3-dimethyl-1-oxobutan-2-yl)-N^1-methyloctanediamide], the Dmax on EML4-ALK (setting [1]) came out at 68.6%; on EML4-ALK (setting [2]), 41.6%; at EML4-ALK (setting [3]), 55.1%. Moreover, the DC50 at EML4-ALK (setting [4]) came out at 0.392 µM; at EML4-ALK (setting [5]), 0.145 µM; on EML4-ALK (setting [6]) it was 0.269 µM. In the test with H3122 cells, the IC50 was 0.149 µM.

As to `COc1cc(CCN(C)C(=O)CCCCCCCC(=O)N[C@H](C(=O)N2C[C@H](O)C[C@H]2C(=O)N[C@@H](C)c2ccc(-c3scnc3C)cc2)C(C)(C)C)c(C)cc1Nc1ncc(Cl)c(Nc2ccccc2S(=O)(=O)C(C)C)n1` [compound 41, N^1-(4-((5-chloro-4-((2-(isopropylsulfonyl)phenyl)amino)pyrimidin-2-yl)amino)-5-methoxy-2-methylphenethyl)-N^9-((S)-1-((2S,4R)-4-hydroxy-2-(((S)-1-(4-(4-methylthiazol-5-yl)phenyl)ethyl)carbamoyl)pyrrolidin-1-yl)-3,3-dimethyl-1-oxobutan-2-yl)-N^1-methylnonanediamide], the Dmax at EML4-ALK (setting [1]) and at EML4-ALK (setting [3]) was 56.2% each time. In addition, the DC50 on EML4-ALK (setting [4]) and on EML4-ALK (setting [6]) was 0.626 µM each time. Also, the IC50 in the test on H3122 cells stood at 0.176 µM.

For `COc1cc(CCN(C)C(=O)CCCCCCCCC(=O)N[C@H](C(=O)N2C[C@H](O)C[C@H]2C(=O)N[C@@H](C)c2ccc(-c3scnc3C)cc2)C(C)(C)C)c(C)cc1Nc1ncc(Cl)c(Nc2ccccc2S(=O)(=O)C(C)C)n1` [compound 42, N^1-(4-((5-chloro-4-((2-(isopropylsulfonyl)phenyl)amino)pyrimidin-2-yl)amino)-5-methoxy-2-methylphenethyl)-N^10-((S)-1-((2S,4R)-4-hydroxy-2-(((S)-1-(4-(4-methylthiazol-5-yl)phenyl)ethyl)carbamoyl)pyrrolidin-1-yl)-3,3-dimethyl-1-oxobutan-2-yl)-N^1-methyldecanediamide], the Dmax on EML4-ALK (setting [1]) and at EML4-ALK (setting [3]) was 47.3% throughout. The DC50 at EML4-ALK (setting [4]) and on EML4-ALK (setting [6]) was 0.777 µM in each case. Moreover, the IC50 with H3122 cells came to 1.31 µM.

One may read the Dmax as the greatest extent of degradation seen. In general, DC50 refers to the concentration giving 50% degradation. For orientation: IC50 means the point on the concentration scale where inhibition reaches its midpoint.

The values above are taken from patent US20230158157A1, “POTENT AND SELECTIVE DEGRADERS OF ALK” (DANA-FARBER CANCER INSTITUTE, INC., priority 2020, published 2023).
